Literature values as cited in US20100136095A1, “Systems for modulating inflammation” (Searete LLC, a limited liability corporation of the State …, priority 2008, published 2010).
Values belong to the compound of their own block, whether it stands above or below them.

Assays:
[1] = infused at 400 mg over one hour, single agent
[2] = tested on: lethal septic shock; conditions: mice
[3] = tested on: Src family kinase
[4] = tested on: Src family kinases (Src, Lck, Yes, Fyn); conditions: at nanomolar concentrations
[5] = tested on: proteasome; conditions: cultured breast cancer cells; disulfiram bound to copper

Compound: CCN(CC)CCCC(C)Nc1ccnc2cc(Cl)ccc12.O=P(O)(O)O.O=P(O)(O)O (centres unmarked) [Chloroquine phosphate, 7-chloro-4-[[4-(diethylamino)-1-methylbutyl]amino]quinoline phosphate (1:2)]
tolerability of infusion [1]: without complication

Compound: Cl.Cl.Nc1ccccc1Oc1ccc2c(N)nsc2c1 [Example M62812, 3-amino-6-(2-aminophenoxy)-1,2-benzisothiazole dihydrochloride]
prevention of lethal septic shock [2]: prevents lethal septic shock

inhibition of CpG-induced Src family kinase activation or its dependent cellular responses [3]: does not inhibit
Compound: CCN(CC)CCCC(C)Nc1ccnc2cc(Cl)ccc12 (centres unmarked) [Chloroquine]

Compound: Cc1nc(Nc2ncc(C(=O)Nc3c(C)cccc3Cl)s2)cc(N2CCN(CCO)CC2)n1.O [Dasatinib, N-(2-chloro-6-methylphenyl)-2-[[6-[4-(2-hydroxyethyl)-1-piperazinyl]-2-methyl-4-pyrimidinyl]amino]-5-thiazolecarboxamide, monohydrate]
inhibition of Src family kinases (Src, Lck, Yes, Fyn) [4]: inhibits

Compound: CCN(CC)C(=S)SSC(=S)N(CC)CC [Disulfiram, 1-(diethylthiocarbamoyldisulfanyl)-N,N-diethyl-methanethioamide]
proteasomal activity [5]: inhibits proteasomal activity
